For series [1] the following is noted: cited from earlier work.
Series [2] is described as follows: Solubility of salts in saturated spray drying solutions (Table 2). Type of series: physicochemical. The text has this: Other examples of the methods of the invention include formation of nano particles of other components. For example, compositions of solution to be spray dried for preparing nano particles of various calcium phosphate phases are set forth in Table 2. Because MCPM is highly soluble, the solution for the nano MCPM production can be prepared by dissolving an appropriate amount of MCPM or other sources of Ca (for example CaCO3) and P (for example H3PO4) in a solution of the desired concentration (Table 2). For the preparation of nano particles of other calcium phosphates, a volatile weak acid is used to facilitate solubilization of the calcium phosphate ions. […] In general, a minimum amount of the volatile weak acid, necessary to keep the calcium and phosphate ions in the solution, is used to facilitate the removal of the acid in the spray drying process.

A short description of series [3]: Reaction of CaF2 with macro DCPD in water paste, XRD. Type of series: physicochemical. To be noted: paste with water 1g/1 mL, 100% humidity, 37° C., 24 h. The method, then:
In another test, mixtures containing a macro (median size 1.6 μm) DCPD and either the nano CaF2 or a macro CaF2 were mixed with water (1g/1 mL) and the pastes were left in 100% humidity at 37° C. for 24 h.

For series [4] the following is noted: comparison value for crystalline CaF2; cited from earlier work.
Where [5] appears, read: acetic acid, high: DCPD/DCPA 996, OCP 995, ACP/TCP 985, HA 998 mmol/L.
Where [6] appears, read: acetic acid, low: DCPD/DCPA 0, OCP 0.04, ACP/TCP 0, HA 0.122 mmol/L.
Setting [7] is: carbonic acid, high: DCPD/DCPA 1000 mol/L, OCP 1018, ACP/TCP 1152, HA 1004 mmol/L.
Where [8] appears, read: carbonic acid, low: DCPD/DCPA 0, OCP 0.04, ACP/TCP 0, HA 0.164 mmol/L.

In the case of Hydroxyapatite [HA], in series [1] (comparison value for crystalline HA), the “IAP(HA)” value is 1×10^−117. The “pIAP(HA)” value in series [1] (comparison value for macro scale HA) is 117. Moreover, the “[Ca] of saturated solution” value in series [2] (setting [5]) worked out at 132 mmol/L; in series [2] (setting [6]) it was 0.1 mmol/L; in series [2] (setting [7]), 14.2 mmol/L; in series [2] (setting [8]), 0.1 mmol/L. Moreover, the “[P] of saturated solution” value in series [2] (setting [5]) is 79 mmol/L; in series [2] (setting [6]), 0.06 mmol/L; in series [2] (setting [7]), 8.54 mmol/L; in series [2] (setting [8]), 0.06 mmol/L. Further, the “pH of saturated solution” value in series [2] (setting [5]) was determined as 3.9; in series [2] (setting [6]) it was 6.8; in series [2] (setting [7]), 4.6; in series [2] (setting [8]), 6.8.
Take `[Ca+2].[F-].[F-]` [crystalline CaF2, Calcium fluoride]: the “consumption of CaF2 by reaction with DCPD (XRD)” value in series [3] is reported as “no reduction”. Further, in series [4], the Ksp was 3.9×10^−11.

These data come from patent publication US7670579B2, “Nanostructured bioactive materials prepared by dual nozzle spray drying techniques” (American Dental Association Foundation, priority 2004, dated 2010).
